Consider 15 compounds from patent US12473295B2, “Substituted straight chain spiro derivatives” (Janssen Pharmaceutica NV, priority 2019, dated 2025).

Structures can show the parent of a compound that is named as a salt. Where two headings read alike, the source gives them in different places. Bounds are passed on as bounds.

Assay [1] addresses menin/MLL (terbium chelate-labeled menin, FITC-MBM1 peptide) (Homo sapiens (Human), UniProt O00255). The assay is described as follows: Menin/MLL homogenous time-resolved fluorescence (HTRF) assay.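 Further: IC50 from percent inhibition of HTRF signal, normalized between wells without competitor and wells with a saturating competitor that displaces FITC-MBM1 from His-tagged menin.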 The format is binding. Background: Time-resolved FRET reads energy transfer from a long-lived donor to a nearby acceptor.
The test system of another assay is MOLM14 cells. Nature of the assay: Proliferation assay (spheroid growth, 8 days), MOLM14.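 Further: spheroid size read as confluence by live-cell imaging, compounds added at a range of concentrations with 0.3% DMSO, DMSO-treated wells = 0%, highest reference dose = low control.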 The format is cell-based, human. Particulars: MOLM14, 8 days, read-out: spheroid assay_OneTime MOLM14 IC50.
The test system of the next assay is OCI-AML3 cells. The assay is described as follows: Proliferation assay (spheroid growth, 8 days), OCI-AML3. The class given is cell-based, human. Particulars: OCI-AML3, 8 days. Put shortly: (§1)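 8-day spheroid growth in ultra-low attachment plates; seeding 200 cells (MOLM14, OCI-AML3) or 300 (KO-52); DMSO 0.3%. Day-8 imaging, confluence vs DMSO (0%) and top reference dose (baseline); IC50 by variable-slope fit.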

The test system of another assay is KO-52 cells. Nature of the assay: Proliferation assay (spheroid growth, 8 days), KO-52 control cell line. The class given is cell-based, human. As to conditions: read-out: spheroid assay_OneTime KO-52 IC50. An outline of the steps: as §1
Another assay relates to MEIS1 mRNA. Nature of the assay: MEIS1 mRNA expression assay (Quantigene Singleplex) in MOLM14 cells.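 Further: MEIS1 transcript levels read by probe hybridization and normalized to RPL28 mRNA, with IC50 fitted to fold changes across a rising compound concentration series.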 The class given is cell-based, human. As to conditions: 48 hours incubation.
[2] abbreviates: HTRF-30 min incubation IC50, 30 min incubation.
Where [3] appears, read: read-out: HTRF-30 min incubation IC50, 30 min incubation.

menin/MLL (terbium chelate-labeled menin, FITC-MBM1 peptide), sequence (O00255 other isoform, or with tags, fused parts or gaps): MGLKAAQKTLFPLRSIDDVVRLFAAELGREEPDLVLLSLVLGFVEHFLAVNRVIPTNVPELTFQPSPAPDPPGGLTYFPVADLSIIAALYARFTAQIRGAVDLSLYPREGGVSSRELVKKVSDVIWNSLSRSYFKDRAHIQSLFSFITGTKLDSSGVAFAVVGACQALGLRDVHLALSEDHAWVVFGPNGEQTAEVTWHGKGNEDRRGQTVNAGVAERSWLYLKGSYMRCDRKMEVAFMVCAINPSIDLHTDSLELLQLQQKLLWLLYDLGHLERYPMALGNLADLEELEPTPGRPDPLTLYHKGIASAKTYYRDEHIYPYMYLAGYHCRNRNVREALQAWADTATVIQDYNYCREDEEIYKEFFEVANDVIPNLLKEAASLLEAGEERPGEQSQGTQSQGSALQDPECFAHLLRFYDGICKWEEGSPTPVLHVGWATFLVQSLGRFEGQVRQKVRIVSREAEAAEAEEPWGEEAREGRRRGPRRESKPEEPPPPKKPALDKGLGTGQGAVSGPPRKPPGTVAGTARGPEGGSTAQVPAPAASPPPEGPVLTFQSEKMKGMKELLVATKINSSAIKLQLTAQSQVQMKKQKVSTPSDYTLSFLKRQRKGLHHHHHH

As a reminder, the IC50 is the midpoint of a concentration-inhibition curve. Regarding `CC(C)[C@@H](CCCN(C)C[C@H](C)C(N)=O)N1CC2(CCN(c3ncnnc3Oc3ccc(F)cc3C(=O)N(C(C)C)C(C)C)C2)C1` (single isomer, unassigned) [Compound 205, 2-((5-(2-((*R)-6-(((S)-3-amino-2-methyl-3-oxopropyl)(methyl)amino)-2-methylhexan-3-yl)-2,6-diazaspiro[3.4]octan-6-yl)-1,2,4-triazin-6-yl)oxy)-5-fluoro-N,N-diisopropylbenzamide fumarate], the IC50 in assay [1] (setting [2]) is 0.21 nM; in the assay on MOLM14 cells (Homo sapiens, MOLM-14, […]), 29 nM; in the assay on OCI-AML3 cells (Homo sapiens, OCI-AML-3, […]), 43 nM; in the assay with KO-52 cells (Homo sapiens, […]), greater than 15000 nM; in the assay with MEIS1 mRNA (Homo sapiens, MOLM-14, 48 h) it was 35 nM.
For `CCN(C(=O)c1cc(F)ccc1Oc1nncnc1N1CCC2(C1)CN(C(CCCNCC(C)(C)OC)C(C)C)C2)C(C)C` (stereo not drawn) [Compound 69, N-ethyl-5-fluoro-N-isopropyl-2-((5-(2-(6-((2-methoxy-2-methylpropyl)amino)-2-methylhexan-3-yl)-2,6-diazaspiro[3.4]octan-6-yl)-1,2,4-triazin-6-yl)oxy)benzamide] the same measures were 0.099 nM, 20 nM, 87 nM, 7180 nM and 16 nM.
As for “N-ethyl-2-((5-(2-((3*R,5*R)-6-(ethyl(methyl)amino)-5-methoxy-2-methylhexan-3-yl)-2, diazaspiro[3.4]octan-6-yl)-1,2,4-triazin-6-yl)oxy)-5-fluoro-N-isopropylbenzamide [Compound 311]”, the IC50 in assay [1] (setting [3]) was 1.01 nM; in the assay with MOLM14 cells, 510 nM; with OCI-AML3 cells, 2880 nM; with KO-52 cells it was greater than 15000 nM; in the assay with MEIS1 mRNA, roughly 630 nM.
On to `CCN(C(=O)c1cc(F)ccc1Oc1nncnc1N1CCC2(C1)CN([C@H](CCCN(C)CC(OC)OC)C(C)C)C2)C(C)C` [Compound 150, (R)-2-((5-(2-(6-((2,2-dimethoxyethyl)(methyl)amino)-2-methylhexan-3-yl)-2,6-diazaspiro[3.4]octan-6-yl)-1,2,4-triazin-6-yl)oxy)-N-ethyl-5-fluoro-N-isopropylbenzamide fumarate], for which the IC50 in assay [1] (setting [2]) is 0.26 nM; in the assay with MOLM14 cells (Homo sapiens, MOLM-14, […]), 14 nM; in the assay with OCI-AML3 cells (Homo sapiens, OCI-AML-3, […]), 160 nM; with KO-52 cells (Homo sapiens, […]), 8700 nM; with MEIS1 mRNA (Homo sapiens, MOLM-14, 48 h), 13 nM.
The corresponding values for `CCN(C)CCC[C@@H](C(C)C)N1CC2(CCN(c3ncnnc3Oc3ccc(F)cc3C(=O)N(CC)C(C)C)C2)C1` (single isomer, unassigned) [Compound 133, (*S)—N-ethyl-2-((5-(2-(6-(ethyl(methyl)amino)-2-methylhexan-3-yl)-2,6-diazaspiro[3.4]octan-6-yl)-1,2,4-triazin-6-yl)oxy)-5-fluoro-N-isopropylbenzamide fumarate] are 2.13 nM, greater than 940 nM, 3500 nM, greater than 15000 nM and greater than 1000 nM.
For `CCN(C(=O)c1cc(F)ccc1Oc1nncnc1N1CCC2(C1)CN([C@H](CCCN(C)C[C@@H](O)COC)C(C)C)C2)C(C)C` [Compound 283, N-ethyl-5-fluoro-2-((5-(2-((R)-6-(((R)-2-hydroxy-3-methoxypropyl)(methyl)amino)-2-methylhexan-3-yl)-2,6-diazaspiro[3.4]octan-6-yl)-1,2,4-triazin-6-yl)oxy)-N-isopropylbenzamide fumarate] the same measures were 0.054 nM, 14 nM, 46 nM, greater than 15000 nM and 10 nM.
For `CCN(C(=O)c1cc(F)ccc1Oc1nnccc1N1CCC2(C1)CN([C@H](CCCN(C)C)C(C)C)C2)C(C)C` (single isomer, unassigned) [Compound 77, (*R)-2-((4-(2-(6-(dimethylamino)-2-methylhexan-3-yl)-2,6-diazaspiro[3.4]octan-6-yl)pyridazin-3-yl)oxy)-N-ethyl-5-fluoro-N-isopropylbenzamide], the IC50 in assay [1] (setting [3]) worked out at 0.51 nM; in the assay on MOLM14 cells, 100 nM; in the assay on OCI-AML3 cells, 1320 nM; in the assay with KO-52 cells, 13700 nM; in the assay with MEIS1 mRNA, 120 nM.
For `CC(C)[C@H](CCCN(C)C)N1CC2(CCN(c3ncnnc3Oc3ccc(F)cc3C(=O)N(C(C)C)C(C)C)C2)C1` (single isomer, unassigned) [Compound 103, (*S)-2-((5-(2-(6-(dimethylamino)-2-methylhexan-3-yl)-2,6-diazaspiro[3.4]octan-6-yl)-1,2,4-triazin-6-yl)oxy)-5-fluoro-N,N-diisopropylbenzamide fumarate], the IC50 in assay [1] (setting [2]) is 2.43 nM; in the assay on MOLM14 cells (Homo sapiens, MOLM-14, […]), 290 nM; with OCI-AML3 cells (Homo sapiens, OCI-AML-3, […]), 1360 nM; in the assay with KO-52 cells (Homo sapiens, […]), greater than 15000 nM; with MEIS1 mRNA (Homo sapiens, MOLM-14, 48 h), 420 nM.
Take `CCN(C(=O)c1cc(F)ccc1Oc1nncnc1N1CCC2(C1)CN([C@H](CCCN(C)C[C@H](C)OC)C(C)C)C2)C(C)C` (single isomer, unassigned) [Compound 251, N-ethyl-5-fluoro-N-isopropyl-2-((5-(2-((R)-6-(((*S)-2-methoxypropyl)(methyl)amino)-2-methylhexan-3-yl)-2,6-diazaspiro[3.4]octan-6-yl)-1,2,4-triazin-6-yl)oxy)benzamide oxalate]: the IC50 came to 0.18 nM in assay [1] (setting [2]); 52 nM with MOLM14 cells (Homo sapiens, MOLM-14, […]); 130 nM in the assay on OCI-AML3 cells (Homo sapiens, OCI-AML-3, […]); 3900 nM in the assay on KO-52 cells (Homo sapiens, […]); 19 nM in the assay on MEIS1 mRNA (Homo sapiens, MOLM-14, 48 h).
On to `CCN(C(=O)c1cc(F)ccc1Oc1nncnc1N1CCC2(C1)CN(C(C(C)C)C(C)CCN(C)CCOC)C2)C(C)C` (single isomer, unassigned) [Compound 266, N-ethyl-5-fluoro-N-isopropyl-2-((5-(2-(6-((2-methoxyethyl)(methyl)amino)-2,4-dimethylhexan-3-yl)-2,6-diazaspiro[3.4]octan-6-yl)-1,2,4-triazin-6-yl)oxy)benzamide (mixture of R,R and S,S; or mixture of R,S and S,R) fumarate], for which the IC50 is 0.92 nM in assay [1] (setting [2]); 29 nM in the assay with MOLM14 cells; 49 nM in the assay with OCI-AML3 cells; greater than 15000 nM in the assay on KO-52 cells (Homo sapiens, […]); 39 nM in the assay on MEIS1 mRNA (Homo sapiens, MOLM-14, 48 h).
`CCN(C(=O)c1cc(F)ccc1Oc1nncnc1N1CCC2(C1)CN([C@H](CCCN(C)CC(C)C(=O)N(C)C)C(C)C)C2)C(C)C` (stereo partly drawn) [Compound 181, 2-((5-(2-((3R)-6-((3-(dimethylamino)-2-methyl-3-oxopropyl)(methyl)amino)-2-methylhexan-3-yl)-2,6-diazaspiro[3.4]octan-6-yl)-1,2,4-triazin-6-yl)oxy)-N-ethyl-5-fluoro-N-isopropylbenzamide fumarate]: the IC50 was determined as 0.079 nM in assay [1] (setting [2]); 23 nM in the assay with MOLM14 cells (Homo sapiens, MOLM-14, […]); 44 nM with OCI-AML3 cells (Homo sapiens, OCI-AML-3, […]); 14000 nM with KO-52 cells (Homo sapiens, […]); 17 nM with MEIS1 mRNA (Homo sapiens, MOLM-14, 48 h).
For `CCN(C(=O)c1cc(F)ccc1Oc1nncnc1N1CCC2(C1)CN([C@@H](CCCN(C)C(C)C)C(C)C)C2)C(C)C` (single isomer, unassigned) [Compound 123, (*S)—N-ethyl-5-fluoro-N-isopropyl-2-((5-(2-(6-(isopropyl(methyl)amino)-2-methylhexan-3-yl)-2,6-diazaspiro[3.4]octan-6-yl)-1,2,4-triazin-6-yl)oxy)benzamide fumarate] the same measures were 3.98 nM, greater than 940 nM, 3550 nM, greater than 15000 nM and greater than 1000 nM.
Regarding `CCN(C(=O)c1cc(F)ccc1Oc1nncnc1N1CCC2(C1)CN([C@H](CCN(C)CCCO)C(C)C)C2)C(C)C` (single isomer, unassigned) [Compound 274, (*R)—N-ethyl-5-fluoro-2-((5-(2-(1-((3-hydroxypropyl)(methyl)amino)-4-methylpentan-3-yl)-2,6-diazaspiro[3.4]octan-6-yl)-1,2,4-triazin-6-yl)oxy)-N-isopropylbenzamide], the IC50 in assay [1] (setting [2]) was 0.38 nM; in the assay on MOLM14 cells (Homo sapiens, MOLM-14, […]), 200 nM; in the assay with OCI-AML3 cells (Homo sapiens, OCI-AML-3, […]), 640 nM; in the assay with KO-52 cells (Homo sapiens, […]), greater than 15000 nM; in the assay with MEIS1 mRNA (Homo sapiens, MOLM-14, 48 h), 230 nM.
`CCN(C(=O)c1cc(F)ccc1Oc1nnccc1N1CCC2(C1)CN([C@@H](CCCN(C)C)C(C)C)C2)C(C)C` (single isomer, unassigned) [Compound 78, (*S)-2-((4-(2-(6-(dimethylamino)-2-methylhexan-3-yl)-2,6-diazaspiro[3.4]octan-6-yl)pyridazin-3-yl)oxy)-N-ethyl-5-fluoro-N-isopropylbenzamide]: the IC50 in assay [1] (setting [3]) was 3.69 nM; in the assay on MOLM14 cells, greater than 940 nM; in the assay with OCI-AML3 cells, 12200 nM; with KO-52 cells, greater than 15000 nM; in the assay with MEIS1 mRNA it was greater than 1000 nM.
As to `CCN(C(=O)c1cc(F)ccc1Oc1nncnc1N1CCC2(C1)CN([C@H](CCCN(C)[C@H](C)COC)C(C)C)C2)C(C)C` [Compound 154, N-ethyl-5-fluoro-N-isopropyl-2-((5-(2-((R)-6-(((R)-1-methoxypropan-2-yl)(methyl)amino)-2-methylhexan-3-yl)-2,6-diazaspiro[3.4]octan-6-yl)-1,2,4-triazin-6-yl)oxy)benzamide fumarate], the IC50 in assay [1] (setting [2]) was 0.051 nM; in the assay on MOLM14 cells (Homo sapiens, MOLM-14, […]), 22 nM; in the assay with OCI-AML3 cells (Homo sapiens, OCI-AML-3, […]), 67 nM; in the assay on KO-52 cells (Homo sapiens, […]), greater than 15000 nM; in the assay with MEIS1 mRNA (Homo sapiens, MOLM-14, 48 h), 27 nM.
